Publication PMC4635504, “Characterization of a bifidobacterial system that utilizes galacto-oligosaccharides” (Microbiology, 2015)
pKd: −log10 of the molar value.

Target: T1, BbrY_0420 (SBP of the ABC transporter) (Bifidobacterium breve, UniProt A0AAX3NJV5)
T1 sequence (A0AAX3NJV5 1-449): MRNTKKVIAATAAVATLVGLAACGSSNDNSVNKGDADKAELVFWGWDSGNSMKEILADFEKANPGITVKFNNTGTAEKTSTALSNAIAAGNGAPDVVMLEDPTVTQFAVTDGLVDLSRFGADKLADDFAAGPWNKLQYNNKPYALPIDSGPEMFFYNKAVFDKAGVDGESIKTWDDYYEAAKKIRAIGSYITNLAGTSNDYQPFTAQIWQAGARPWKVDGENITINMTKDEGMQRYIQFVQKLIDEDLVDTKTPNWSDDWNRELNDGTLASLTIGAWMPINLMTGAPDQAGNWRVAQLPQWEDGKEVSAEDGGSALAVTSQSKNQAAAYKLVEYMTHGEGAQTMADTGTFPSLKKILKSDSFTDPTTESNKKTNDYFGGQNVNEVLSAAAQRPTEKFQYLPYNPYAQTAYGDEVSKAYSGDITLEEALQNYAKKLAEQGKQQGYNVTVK
Details: HBS-P+ buffer, 25 °C, one-site binding model

pKd: 4.98
SMILES: OC[C@H]1O[C@@H](O[C@@H]2[C@H](O)[C@@H](O)[C@H](O[C@H]3[C@H](O)[C@@H](O)C(O)O[C@@H]3CO)O[C@@H]2CO)[C@H](O)[C@@H](O)[C@H]1O (stereo partly shown) [4′-GL, 4′-galactosyllactose]
